The subject of data set [1] is battery of selected protein kinases. The data set is described as follows: In vitro screen of a battery of selected protein kinases (summary statement). Format: biochemical. As to conditions: BTK, BMX, ABL, ABL(E255K), SRC, ACK, ARG, BLK, DDR2, EPHA, FGR, FMS, FRK, FYN, HCK, LCK, LYN, PDGFRα, PDGFRβ, YES, PIK3CA/PIK3R1, among others.
The subject of data set [2] is Mino. The data set is described as follows: Cell inhibition assay (PrestoBlue, 48 h). It counts as cell-based. As to conditions: Homo sapiens, Mino cells, read-out: IC50, inhibition of growth.
For data set [3], the target named is T1, ACK (Homo sapiens, UniProt Q07912).
T1 construct: purchased Carna Biosciences, Inc
The data set is described as follows: Off-chip Mobility Shift Assay, kinase inhibition. It counts as biochemical. Conditions: at 10 nM; recombinant ACK.

The target of data set [4] is T2, LCK (Homo sapiens, UniProt P06239).
T2 construct: purchased Carna Biosciences, Inc
The data set is described as follows: Off-chip Mobility Shift Assay, kinase inhibition. It counts as biochemical. As to conditions: recombinant LCK; for inhibition at 0.001 µM: at 1 nM; for inhibition at 0.01 µM: at 10 nM.

Data set [5] deals with T3, TEC (Homo sapiens, UniProt P42680).
T3 construct: purchased Carna Biosciences, Inc
T3 sequence (P42680 1-631): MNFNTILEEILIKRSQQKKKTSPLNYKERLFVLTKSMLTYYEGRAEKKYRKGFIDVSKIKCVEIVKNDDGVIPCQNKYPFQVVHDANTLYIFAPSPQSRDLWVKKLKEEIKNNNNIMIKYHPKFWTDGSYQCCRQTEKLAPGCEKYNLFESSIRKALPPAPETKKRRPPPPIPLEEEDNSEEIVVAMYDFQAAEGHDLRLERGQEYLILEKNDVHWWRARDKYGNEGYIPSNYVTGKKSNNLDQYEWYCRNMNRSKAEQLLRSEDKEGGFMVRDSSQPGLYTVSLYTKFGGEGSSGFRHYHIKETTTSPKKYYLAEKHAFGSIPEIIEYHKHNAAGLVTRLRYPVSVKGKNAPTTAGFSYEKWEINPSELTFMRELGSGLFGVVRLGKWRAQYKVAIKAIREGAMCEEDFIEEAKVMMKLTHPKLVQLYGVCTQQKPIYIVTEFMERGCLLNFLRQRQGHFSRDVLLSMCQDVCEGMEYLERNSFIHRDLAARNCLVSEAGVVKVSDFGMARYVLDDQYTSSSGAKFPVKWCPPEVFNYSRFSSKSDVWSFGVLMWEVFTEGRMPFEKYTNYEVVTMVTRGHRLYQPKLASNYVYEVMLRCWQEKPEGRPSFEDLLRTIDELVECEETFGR
The data set is described as follows: Off-chip Mobility Shift Assay, kinase inhibition. It counts as biochemical. As to conditions: at 1 nM; recombinant TEC.

Data set [6] is described as follows: Metabolic stability in human liver microsomes. It counts as in vitro ADME. As to conditions: human liver microsomes. The procedure:
FIG. 1. Metabolic stability of compounds in human liver microsomal incubations. […] Concentrations at specified times were determined by LC-MS/MS.
The incubation reactions at various time points were quenched by adding 2× volumes of acetonitrile containing 100 nM reserpine. The quenched incubation samples were centrifuged at 4000 RPM for 10 min, and the supernatants injected for LC/MS/MS analysis. LC/MS/MS analysis was carried out on a AB Sciex 4000 Q Trap LC/MS/MS system coupled with Shimadzu Prominence UFLCXR 20 series (including a CBM-20A controller, two LC-20ADXR solvent delivery units, SIL-20AC HT autosampler, CTO-20A column oven, and a SPD-20A UV detector).
For orientation: Liver microsomes are a subcellular fraction often used to study metabolism.

In data set [7] the target is T4, FGR (Homo sapiens, UniProt P09769).
T4 construct: purchased Carna Biosciences, Inc
The data set is described as follows: Off-chip Mobility Shift Assay, kinase inhibition. It counts as biochemical. As to conditions: recombinant FGR; for inhibition at 0.01 µM: at 10 nM, read-out: inhibition.

The target of data set [8] is T5, HCK (Homo sapiens, UniProt P08631).
T5 construct: purchased Carna Biosciences, Inc
Nature of the data set: Off-chip Mobility Shift Assay, kinase inhibition. It counts as biochemical. Conditions: recombinant HCK; for inhibition at 0.001 µM: at 1 nM; for inhibition at 0.01 µM: at 10 nM, read-out: inhibition.

For data set [9], the system named is SU-DHL-4. Nature of the data set: Cell inhibition assay (PrestoBlue, 48 h). It counts as cell-based. As to conditions: Homo sapiens, SU-DHL-4, 48 h, SU-DHL-4 diffuse large B-cell lymphoma cells, read-out: IC50, inhibition of growth.
The target in data set [10] is T6, ARG (Homo sapiens, UniProt P42684).
T6 construct: purchased Carna Biosciences, Inc
The data set is described as follows: Off-chip Mobility Shift Assay, kinase inhibition. It counts as biochemical. As to conditions: at 10 nM; recombinant ARG; read-out: inhibition.

Data set [11] has as its target T7, BLK (Homo sapiens, UniProt P51451).
T7 construct: purchased Carna Biosciences, Inc
Nature of the data set: Off-chip Mobility Shift Assay, kinase inhibition. Format: biochemical. As to conditions: recombinant BLK; for inhibition at 0.01 µM: at 10 nM.

For data set [12], the target named is T8, PDGFRα (Homo sapiens, UniProt P16234).
T8 construct: purchased Carna Biosciences, Inc
The data set is described as follows: Off-chip Mobility Shift Assay, kinase inhibition. Format: biochemical. Conditions: recombinant PDGFRα; for inhibition at 0.01 µM: at 10 nM, read-out: inhibition.

Data set [13] addresses T9, BTK (Homo sapiens, UniProt Q06187).
T9 construct: purchased Carna Biosciences, Inc
Nature of the data set: Off-chip Mobility Shift Assay, kinase inhibition. It counts as biochemical. Conditions: recombinant BTK; for inhibition at 0.001 µM: at 1 nM; for inhibition at 0.01 µM: at 10 nM.

Data set [14] has as its target T10, ABL(E255K) (Homo sapiens, UniProt P00519, E255K).
T10 construct: purchased Carna Biosciences, Inc
Nature of the data set: Off-chip Mobility Shift Assay, kinase inhibition. Format: biochemical. Conditions: recombinant ABL(E255K); for inhibition at 0.001 µM: at 1 nM; for inhibition at 0.01 µM: at 10 nM.

Data set [15] concerns the target T11, YES (Homo sapiens, UniProt P07947).
T11 construct: purchased Carna Biosciences, Inc
The data set is described as follows: Off-chip Mobility Shift Assay, kinase inhibition. Format: biochemical. As to conditions: recombinant YES; for inhibition at 0.001 µM: at 1 nM; for inhibition at 0.01 µM: at 10 nM.

The target in data set [16] is T12, SRC (Homo sapiens, UniProt P12931).
T12 construct: purchased Carna Biosciences, Inc
Nature of the data set: Off-chip Mobility Shift Assay, kinase inhibition. Format: biochemical. As to conditions: recombinant SRC; for inhibition at 0.001 µM: at 1 nM; for inhibition at 0.01 µM: at 10 nM.

For data set [17], the target named is T13, FYN(isoform a) (Homo sapiens, UniProt P06241).
T13 construct: purchased Carna Biosciences, Inc
The data set is described as follows: Off-chip Mobility Shift Assay, kinase inhibition. Format: biochemical. As to conditions: recombinant FYN(isoform a); for inhibition at 0.01 µM: at 10 nM.

T2 sequence (P06239 whole entry): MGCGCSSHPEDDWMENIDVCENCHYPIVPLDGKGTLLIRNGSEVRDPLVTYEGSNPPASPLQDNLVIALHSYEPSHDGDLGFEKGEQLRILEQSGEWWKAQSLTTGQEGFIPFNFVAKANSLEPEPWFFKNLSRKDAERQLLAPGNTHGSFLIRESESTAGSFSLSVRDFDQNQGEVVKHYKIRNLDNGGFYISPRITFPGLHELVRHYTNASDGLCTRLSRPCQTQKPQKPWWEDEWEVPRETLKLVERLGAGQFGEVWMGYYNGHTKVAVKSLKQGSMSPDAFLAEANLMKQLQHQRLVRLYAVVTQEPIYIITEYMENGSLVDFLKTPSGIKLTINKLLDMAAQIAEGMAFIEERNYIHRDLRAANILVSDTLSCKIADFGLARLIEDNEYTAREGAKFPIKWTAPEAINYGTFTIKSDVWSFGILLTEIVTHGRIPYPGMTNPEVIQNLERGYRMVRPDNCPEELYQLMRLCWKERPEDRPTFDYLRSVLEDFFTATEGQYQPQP
T6 sequence (P42684 whole entry): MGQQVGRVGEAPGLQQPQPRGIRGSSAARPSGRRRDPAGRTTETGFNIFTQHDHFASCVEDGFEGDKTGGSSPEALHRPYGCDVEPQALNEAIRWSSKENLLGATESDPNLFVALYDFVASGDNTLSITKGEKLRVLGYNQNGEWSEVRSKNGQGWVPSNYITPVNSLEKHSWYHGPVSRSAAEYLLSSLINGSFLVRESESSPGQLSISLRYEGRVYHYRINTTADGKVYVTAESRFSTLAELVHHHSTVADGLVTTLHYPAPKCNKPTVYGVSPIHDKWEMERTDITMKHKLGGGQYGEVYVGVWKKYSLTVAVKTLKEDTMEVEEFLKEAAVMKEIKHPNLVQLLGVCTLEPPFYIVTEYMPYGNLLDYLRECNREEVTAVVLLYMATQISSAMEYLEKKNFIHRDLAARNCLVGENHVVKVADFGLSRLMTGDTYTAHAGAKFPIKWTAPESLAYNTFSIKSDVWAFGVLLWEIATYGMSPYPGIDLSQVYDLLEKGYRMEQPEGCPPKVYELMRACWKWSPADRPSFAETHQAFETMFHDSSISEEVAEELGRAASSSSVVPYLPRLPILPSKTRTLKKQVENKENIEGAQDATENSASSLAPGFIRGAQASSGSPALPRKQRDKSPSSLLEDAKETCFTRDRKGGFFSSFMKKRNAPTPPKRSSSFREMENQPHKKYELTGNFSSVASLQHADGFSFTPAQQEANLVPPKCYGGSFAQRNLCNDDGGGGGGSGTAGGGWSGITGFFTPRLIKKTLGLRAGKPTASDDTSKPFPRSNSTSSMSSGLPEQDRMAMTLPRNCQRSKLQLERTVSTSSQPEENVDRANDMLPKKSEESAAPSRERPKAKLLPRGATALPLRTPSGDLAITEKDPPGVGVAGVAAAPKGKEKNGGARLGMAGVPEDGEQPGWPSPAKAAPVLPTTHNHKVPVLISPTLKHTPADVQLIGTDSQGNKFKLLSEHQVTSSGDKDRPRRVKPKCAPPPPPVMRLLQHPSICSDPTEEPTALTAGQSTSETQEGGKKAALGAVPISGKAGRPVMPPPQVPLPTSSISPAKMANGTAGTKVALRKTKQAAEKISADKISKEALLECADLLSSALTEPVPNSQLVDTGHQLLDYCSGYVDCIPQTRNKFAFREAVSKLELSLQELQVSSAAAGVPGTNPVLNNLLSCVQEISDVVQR
T4 sequence (P09769 whole entry): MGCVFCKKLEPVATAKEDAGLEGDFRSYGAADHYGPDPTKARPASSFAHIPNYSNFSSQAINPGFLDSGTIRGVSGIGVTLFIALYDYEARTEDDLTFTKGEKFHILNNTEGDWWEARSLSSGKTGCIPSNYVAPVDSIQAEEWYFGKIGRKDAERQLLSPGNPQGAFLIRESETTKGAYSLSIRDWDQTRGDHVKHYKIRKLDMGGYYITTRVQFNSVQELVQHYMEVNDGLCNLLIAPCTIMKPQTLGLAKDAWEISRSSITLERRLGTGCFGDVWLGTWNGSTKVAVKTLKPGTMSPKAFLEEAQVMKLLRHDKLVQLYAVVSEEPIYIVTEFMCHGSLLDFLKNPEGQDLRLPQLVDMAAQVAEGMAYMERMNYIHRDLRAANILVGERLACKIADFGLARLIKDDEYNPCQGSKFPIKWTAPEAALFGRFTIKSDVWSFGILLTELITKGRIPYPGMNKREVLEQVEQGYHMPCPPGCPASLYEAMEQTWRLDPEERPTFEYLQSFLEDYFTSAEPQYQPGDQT
T11 sequence (P07947 whole entry): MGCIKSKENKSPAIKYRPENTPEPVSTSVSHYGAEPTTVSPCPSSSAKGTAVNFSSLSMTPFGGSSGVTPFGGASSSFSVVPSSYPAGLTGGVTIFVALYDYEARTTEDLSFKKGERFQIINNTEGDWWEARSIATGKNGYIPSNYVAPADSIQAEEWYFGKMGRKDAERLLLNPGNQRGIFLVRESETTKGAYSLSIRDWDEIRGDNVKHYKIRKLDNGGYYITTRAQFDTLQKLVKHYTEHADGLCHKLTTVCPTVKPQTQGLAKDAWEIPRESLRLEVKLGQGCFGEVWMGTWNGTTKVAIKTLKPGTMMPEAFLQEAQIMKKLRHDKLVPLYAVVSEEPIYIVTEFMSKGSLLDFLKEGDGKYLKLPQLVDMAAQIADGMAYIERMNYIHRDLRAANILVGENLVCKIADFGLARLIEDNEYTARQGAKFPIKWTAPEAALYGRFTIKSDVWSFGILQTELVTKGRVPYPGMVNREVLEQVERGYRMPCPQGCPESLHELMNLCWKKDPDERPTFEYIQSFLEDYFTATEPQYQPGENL
T12 sequence (P12931 whole entry): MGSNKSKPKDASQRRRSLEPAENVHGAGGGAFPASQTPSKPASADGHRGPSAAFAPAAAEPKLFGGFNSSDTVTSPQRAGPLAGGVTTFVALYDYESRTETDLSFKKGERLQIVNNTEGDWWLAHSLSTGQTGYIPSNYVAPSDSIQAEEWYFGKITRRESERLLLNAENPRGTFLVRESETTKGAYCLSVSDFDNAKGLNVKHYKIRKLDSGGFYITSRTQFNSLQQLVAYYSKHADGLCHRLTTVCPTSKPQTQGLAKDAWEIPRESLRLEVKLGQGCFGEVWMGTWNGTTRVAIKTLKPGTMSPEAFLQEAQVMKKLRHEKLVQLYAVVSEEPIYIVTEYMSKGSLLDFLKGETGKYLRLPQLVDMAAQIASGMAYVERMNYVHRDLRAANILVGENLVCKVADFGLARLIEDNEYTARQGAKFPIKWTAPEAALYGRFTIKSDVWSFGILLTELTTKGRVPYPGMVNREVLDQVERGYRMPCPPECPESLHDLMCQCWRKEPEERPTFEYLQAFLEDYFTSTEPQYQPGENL
T10 sequence (P00519 whole entry E255K): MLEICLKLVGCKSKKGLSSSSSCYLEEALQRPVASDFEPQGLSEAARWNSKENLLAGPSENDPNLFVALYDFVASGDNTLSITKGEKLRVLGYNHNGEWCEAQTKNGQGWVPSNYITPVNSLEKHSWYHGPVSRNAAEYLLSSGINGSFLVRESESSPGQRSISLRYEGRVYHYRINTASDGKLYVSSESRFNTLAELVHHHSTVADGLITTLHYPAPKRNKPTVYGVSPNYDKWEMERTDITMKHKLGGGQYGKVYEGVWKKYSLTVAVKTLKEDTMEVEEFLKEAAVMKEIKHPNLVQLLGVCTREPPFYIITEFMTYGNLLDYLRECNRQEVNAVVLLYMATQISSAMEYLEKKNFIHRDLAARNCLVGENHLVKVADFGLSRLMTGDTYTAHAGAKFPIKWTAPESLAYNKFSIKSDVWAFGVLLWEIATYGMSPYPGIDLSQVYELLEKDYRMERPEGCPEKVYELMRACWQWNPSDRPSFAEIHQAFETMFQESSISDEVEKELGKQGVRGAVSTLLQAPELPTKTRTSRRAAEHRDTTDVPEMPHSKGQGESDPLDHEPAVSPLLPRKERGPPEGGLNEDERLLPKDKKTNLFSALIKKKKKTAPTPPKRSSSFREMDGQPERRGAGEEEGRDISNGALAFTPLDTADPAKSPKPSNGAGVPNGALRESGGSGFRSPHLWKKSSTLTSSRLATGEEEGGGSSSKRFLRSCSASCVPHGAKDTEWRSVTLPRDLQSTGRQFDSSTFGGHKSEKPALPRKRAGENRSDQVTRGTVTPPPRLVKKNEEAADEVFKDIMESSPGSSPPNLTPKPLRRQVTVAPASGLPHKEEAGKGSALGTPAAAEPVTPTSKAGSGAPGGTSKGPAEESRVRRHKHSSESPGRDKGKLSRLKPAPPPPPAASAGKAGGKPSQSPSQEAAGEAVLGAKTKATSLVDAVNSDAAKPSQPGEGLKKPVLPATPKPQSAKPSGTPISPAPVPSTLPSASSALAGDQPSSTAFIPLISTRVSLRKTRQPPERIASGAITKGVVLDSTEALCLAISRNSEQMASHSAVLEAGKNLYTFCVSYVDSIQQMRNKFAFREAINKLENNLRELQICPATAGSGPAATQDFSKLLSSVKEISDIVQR
T5 sequence (P08631 whole entry): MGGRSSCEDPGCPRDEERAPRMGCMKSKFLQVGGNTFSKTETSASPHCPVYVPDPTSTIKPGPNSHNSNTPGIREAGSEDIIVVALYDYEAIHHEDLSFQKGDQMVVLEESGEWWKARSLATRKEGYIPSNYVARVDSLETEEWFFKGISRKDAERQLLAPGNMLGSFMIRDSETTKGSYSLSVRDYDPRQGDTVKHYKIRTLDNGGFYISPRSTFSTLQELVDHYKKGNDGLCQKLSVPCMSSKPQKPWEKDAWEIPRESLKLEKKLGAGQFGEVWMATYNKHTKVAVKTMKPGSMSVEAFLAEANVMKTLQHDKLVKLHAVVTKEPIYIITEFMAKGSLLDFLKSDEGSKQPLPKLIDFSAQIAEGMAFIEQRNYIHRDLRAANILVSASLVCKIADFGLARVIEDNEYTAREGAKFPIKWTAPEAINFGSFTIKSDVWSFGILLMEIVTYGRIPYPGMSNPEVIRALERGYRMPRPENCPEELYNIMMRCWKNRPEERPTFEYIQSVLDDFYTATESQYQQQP

The term IC50 denotes the concentration that inhibits the measured activity by half. In general, inhibition refers to the percentage by which the read-out fell short of the control. For `Cc1nc(Nc2ncc(C(=O)Nc3c(C)cccc3Cl)s2)cc(N2CC[C@@H](N)C2)n1` [Compound XIII, N-(2-chloro-6-methylphenyl)-2-[[2-methyl-6-((R)-3-aminopyrrolidin-1-yl)pyrimidin-4-yl]amino]thiazole-5-carboxamide], in [1], the “activity to inhibit kinases” value is reported as “potent activity”. In addition, the IC50 is below 50 nM in [2] and below 20 nM in data set [9]. Further, the inhibition at 0.01 µM in data set [3], in data set [4], in data set [7], in [8], in [10] and in data set [11] was above 50% each time. In addition, the inhibition at 0.01 µM in data set [12], in data set [13], in data set [14], in [15], in data set [16] and in [17] was above 50% each time. Moreover, the inhibition at 0.001 µM in [4], in data set [5], in data set [8], in [13], in data set [14] and in [15] was above 50% in each case. In addition, the inhibition at 0.001 µM in data set [16] is above 50%. Further, the “metabolic stability compared to dasatinib” value in data set [6] is “significantly greater stability”.
As to `[2H]c1cc(C)c(NC(=O)c2cnc(Nc3cc(N4CC[C@@H](N)C4)nc(C)n3)s2)c(Cl)c1` [Compound VII, N-(2-chloro-4-deutero-6-methylphenyl)-2-[[2-methyl-6-((R)-3-aminopyrrolidin-1-yl)pyrimidin-4-yl]amino]thiazole-5-carboxamide], the “activity to inhibit kinases” value in [1] is given as “potent activity”. The results for the half-inhibitory concentration (IC50) in [2] and in data set [9] were below 50 nM and below 20 nM, respectively. Besides, the inhibition at 0.01 µM in data set [3], in [4], in [7], in data set [8], in data set [10] and in data set [11] was above 50% throughout. The inhibition at 0.01 µM in data set [12], in data set [13], in data set [14], in [15], in data set [16] and in data set [17] was above 50% throughout. The inhibition at 0.001 µM in data set [4], in data set [5], in data set [8], in data set [13], in [14] and in [15] was above 50% each time. In addition, the inhibition at 0.001 µM in data set [16] was above 50%. Moreover, the “metabolic stability compared to dasatinib” value in data set [6] is listed as “significantly greater stability”.
Take `[2H]c1cc(C)c(NC(=O)c2cnc(Nc3cc(N4CC[C@H](N)C4)nc(C)n3)s2)c(Cl)c1` [Compound VI, N-(2-chloro-4-dutero-6-methylphenyl)-2-[[2-methyl-6-((S)-3-aminopyrrolidin-1-yl)pyrimidin-4-yl]amino]thiazole-5-carboxamide]: the “activity to inhibit kinases” value in data set [1] is listed as “potent activity”. Moreover, the IC50 was below 50 nM in data set [2] and below 20 nM in data set [9]. Besides, the inhibition at 0.01 µM in data set [3], in data set [4], in data set [7], in [8], in data set [10] and in [11] was above 50% throughout. In addition, the inhibition at 0.01 µM in data set [12], in data set [13], in data set [14], in [15], in data set [16] and in data set [17] was above 50% each time. For the same compound, the inhibition at 0.001 µM in [4], in data set [5], in data set [8], in data set [13], in data set [14] and in [15] was above 50% each time. The inhibition at 0.001 µM in data set [16] was above 50%. Moreover, the “metabolic stability compared to dasatinib” value in data set [6] is recorded as “significantly greater stability”.
Regarding `[2H]c1cc(C)c(NC(=O)c2cnc(Nc3cc(N4CCC(O)CC4)nc(C)n3)s2)c(Cl)c1` [Compound II, N-(2-chloro-4-deuterio-6-methyl-phenyl)-2-[[6-(4-hydroxy-1-piperidyl)-2-methyl-pyrimidin-4-yl]amino]thiazole-5-carboxamide], the “activity to inhibit kinases” value in [1] is listed as “potent activity”. Moreover, the IC50 is below 50 nM in data set [2] and below 20 nM in data set [9]. Moreover, the inhibition at 0.01 µM in data set [3], in [4], in data set [7], in [8], in [10] and in [11] was above 50% each time. Further, the inhibition at 0.01 µM in data set [12], in data set [13], in data set [14], in data set [15], in data set [16] and in data set [17] was above 50% throughout. The inhibition at 0.001 µM in data set [4] is above 50%; in data set [5], above 50%; in data set [7] (at 1 nM) it was above 50%; in data set [8], above 50%; in data set [11] (at 1 nM), above 50%; in data set [12] (at 1 nM), below 50%. Besides, the inhibition at 0.001 µM in data set [13], in data set [14], in [15], in data set [16] and in [17] (at 1 nM) was above 50% throughout. For the same compound, the inhibition at 0.1 µM in [12] (at 100 nM) is above 50%.

Source of the values: patent publication US10479786B2, “Protein kinase inhibitors” (Princeton Drug Discovery Inc, priority 2016, dated 2019).
